biological target: ROCK2 (Homo sapiens, UniProt O75116); assay: ROCK2 assay (Caliper LABCHIP peptide phosphorylation, kinase inhibition); type: biochemical; conditions: 5 μM ATP, 1.5 μM peptide substrate
Procedure: The effectiveness of compounds of the present invention as ROCK inhibitors can be determined in a 30 μL assay containing 20 mM HEPES, pH 7.5, 20 mM MgCl2, 0.015% Brij-35, 4 mM DTT, 5 μM ATP and 1.5 μM peptide substrate (FITC-AHA-AKRRRLSSLRA-OH) (SEQ ID NO. 1). Compounds were dissolved in DMSO so that the final concentration of DMSO was <2%, and the reaction was initiated with Rho kinase variants. After incubation, the reaction was terminated by the addition of EDTA and the phosphorylated and non-phosphorylated peptides separated using a LABCHIP® 3000 Reader (Caliper Life Sciences). […] Compounds were tested in dose-response format, and the inhibition of kinase activity was calculated at each concentration of compound. The inhibition data were fit using a curve-fitting program to determine the IC50; i.e., the concentration of compound required to inhibit 50% of kinase activity.
Representative Examples were tested in the ROCK2 assay described above and found having ROCK2 inhibitory activity. The ranges of the ROCK2 IC50 values are as follows: ROCK2 IC50: ++++ (<10 nM) +++ (10-100 nM) ++ (100-500 nM) + (500-2000 nM)

ROCK2, sequence (O75116 whole entry, species assumed): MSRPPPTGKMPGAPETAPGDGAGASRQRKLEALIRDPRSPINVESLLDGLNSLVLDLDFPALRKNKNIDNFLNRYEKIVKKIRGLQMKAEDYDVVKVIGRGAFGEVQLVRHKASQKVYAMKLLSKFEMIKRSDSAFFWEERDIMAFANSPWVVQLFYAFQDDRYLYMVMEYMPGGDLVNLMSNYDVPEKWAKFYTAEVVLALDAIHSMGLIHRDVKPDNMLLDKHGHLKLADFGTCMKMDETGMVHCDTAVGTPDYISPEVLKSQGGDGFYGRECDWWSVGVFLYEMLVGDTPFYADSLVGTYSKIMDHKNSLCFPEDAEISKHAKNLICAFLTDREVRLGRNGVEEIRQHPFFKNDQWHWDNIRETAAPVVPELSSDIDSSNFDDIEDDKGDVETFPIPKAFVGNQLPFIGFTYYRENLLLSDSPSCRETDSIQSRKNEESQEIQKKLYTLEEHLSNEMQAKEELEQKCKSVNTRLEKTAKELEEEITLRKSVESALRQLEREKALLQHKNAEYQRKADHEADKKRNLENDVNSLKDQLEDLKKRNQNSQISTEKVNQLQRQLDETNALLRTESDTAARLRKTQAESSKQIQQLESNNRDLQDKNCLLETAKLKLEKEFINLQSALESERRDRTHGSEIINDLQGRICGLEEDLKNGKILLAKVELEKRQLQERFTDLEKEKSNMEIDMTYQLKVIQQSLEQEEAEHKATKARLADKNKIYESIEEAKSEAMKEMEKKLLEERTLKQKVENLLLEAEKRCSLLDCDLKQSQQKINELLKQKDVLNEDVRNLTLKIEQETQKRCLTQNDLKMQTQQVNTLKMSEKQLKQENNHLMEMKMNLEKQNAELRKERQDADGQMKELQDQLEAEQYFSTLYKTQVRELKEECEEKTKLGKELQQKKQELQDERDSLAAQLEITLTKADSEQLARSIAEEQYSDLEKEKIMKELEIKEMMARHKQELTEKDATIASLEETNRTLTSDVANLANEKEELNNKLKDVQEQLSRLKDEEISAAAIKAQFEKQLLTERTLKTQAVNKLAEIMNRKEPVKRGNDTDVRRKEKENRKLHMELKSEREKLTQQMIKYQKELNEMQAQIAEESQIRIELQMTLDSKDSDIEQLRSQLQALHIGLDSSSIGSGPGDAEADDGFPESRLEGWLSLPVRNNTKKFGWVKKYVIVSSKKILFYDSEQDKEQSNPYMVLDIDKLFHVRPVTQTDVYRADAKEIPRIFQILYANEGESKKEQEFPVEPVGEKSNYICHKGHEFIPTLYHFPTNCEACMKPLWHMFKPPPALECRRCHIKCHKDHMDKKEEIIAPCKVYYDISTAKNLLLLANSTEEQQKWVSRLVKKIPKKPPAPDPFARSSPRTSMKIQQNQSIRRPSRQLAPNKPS

| IC50 [nM] | Compound |
| --- | --- |
| < 10 | O=C1C(Nc2cccc(OC(F)F)c2)CCN1c1ccc(-c2n[nH]c(=O)c3ccccc23)cc1 (racemic) [Example 30, 4-[4-(3-{[3-(difluoromethoxy)phenyl]amino}-2-oxopyrrolidin-1-yl)phenyl]-1,2-dihydrophthalazin-1-one] |
| < 10 | O=C1C(Nc2cccc(OC(F)F)c2)CCN1c1ccc(-c2c[nH]c(=O)c3ccccc23)cc1 (racemic) [Example 58, 4-[4-(3-{[3-(difluoromethoxy)phenyl]amino}-2-oxopyrrolidin-1-yl)phenyl]-1,2-dihydroisoquinolin-1-one] |
| < 10 | O=C1COc2cc(NC3CCN(c4ccc(-c5n[nH]c(=O)c6ccccc56)cc4)C3=O)ccc2N1 (racemic) [Example 62, 7-({2-oxo-1-[4-(4-oxo-3,4-dihydrophthalazin-1-yl)phenyl]pyrrolidin-3-yl}amino)-3,4-dihydro-2H-1,4-benzoxazin-3-one] |
| < 10 | Cc1nc2ccc(NC3CCN(c4ccc(-c5n[nH]c(=O)c6ccccc56)cc4)C3=O)cc2s1 (racemic) [Example 66, 4-(4-{3-[(2-methyl-1,3-benzothiazol-6-yl)amino]-2-oxopyrrolidin-1-yl}phenyl)-1,2-dihydrophthalazin-1-one] |
| < 10 | O=C1C(Oc2cccc(OC(F)(F)F)c2)CCN1c1ccc(-c2n[nH]c(=O)c3ccccc23)cc1 (racemic) [Example 73, 4-(4-{2-oxo-3-[3-(trifluoromethoxy)phenoxy]pyrrolidin-1-yl}phenyl)-1,2-dihydrophthalazin-1-one] |
| 10 to 100 | O=C1C(Nc2cccc(OC(F)F)c2)CCN1c1ccc(-c2n[nH]c(=O)c3ccccc23)cc1 (single isomer, unassigned) [Example 55, 4-[4-(3-{[3-(difluoromethoxy)phenyl]amino}-2-oxopyrrolidin-1-yl)phenyl]-1,2-dihydrophthalazin-1-one] |
| < 10 | O=C1C(Nc2cccc(OC(F)F)c2)CCN1c1ccc(-c2n[nH]c(=O)c3ccccc23)cc1 (single isomer, unassigned) [Example 56, 4-[4-(3-{[3-(difluoromethoxy)phenyl]amino}-2-oxopyrrolidin-1-yl)phenyl]-1,2-dihydrophthalazin-1-one] |
| 10 to 100 | O=C1C(Nc2ccc3c(c2)OCCCO3)CCN1c1ccc(-c2n[nH]c(=O)c3ccccc23)cc1 (single isomer, unassigned) [Example 76, 4-(4-{3-[(3,4-dihydro-2H-1,5-benzodioxepin-7-yl)amino]-2-oxopyrrolidin-1-yl}phenyl)-1,2-dihydrophthalazin-1-one] |
| 10 to 100 | O=C1C(Nc2ccc3c(c2)OCCCO3)CCN1c1ccc(-c2n[nH]c(=O)c3ccccc23)cc1 (single isomer, unassigned) [Example 77, 4-(4-{3-[(3,4-dihydro-2H-1,5-benzodioxepin-7-yl)amino]-2-oxopyrrolidin-1-yl}phenyl)-1,2-dihydrophthalazin-1-one] |
| 10 to 100 | O=C1C(Nc2cccc(OC(F)F)c2)CCN1c1ccc(-c2c[nH]c(=O)c3ccccc23)cc1 (single isomer, unassigned) [Example 78, 4-[4-(3-{[3-(difluoromethoxy)phenyl]amino}-2-oxopyrrolidin-1-yl)phenyl]-1,2-dihydroisoquinolin-1-one] |
| < 10 | O=C1C(Nc2cccc(OC(F)F)c2)CCN1c1ccc(-c2c[nH]c(=O)c3ccccc23)cc1 (single isomer, unassigned) [Example 79, 4-[4-(3-{[3-(difluoromethoxy)phenyl]amino}-2-oxopyrrolidin-1-yl)phenyl]-1,2-dihydroisoquinolin-1-one] |
| < 10 | Cc1nc2ccc(NC3CCN(c4ccc(-c5n[nH]c(=O)c6ccccc56)cc4)C3=O)cc2s1 (single isomer, unassigned) [Example 80, 4-(4-{3-[(2-methyl-1,3-benzothiazol-6-yl)amino]-2-oxopyrrolidin-1-yl}phenyl)-1,2-dihydrophthalazin-1-one] |
| 10 to 100 | Cc1nc2ccc(NC3CCN(c4ccc(-c5n[nH]c(=O)c6ccccc56)cc4)C3=O)cc2s1 (single isomer, unassigned) [Example 81, 4-(4-{3-[(2-methyl-1,3-benzothiazol-6-yl)amino]-2-oxopyrrolidin-1-yl}phenyl)-1,2-dihydrophthalazin-1-one] |
| < 10 | O=C1COc2cc(NC3CCN(c4ccc(-c5n[nH]c(=O)c6ccccc56)cc4)C3=O)ccc2N1 (single isomer, unassigned) [Example 82, 7-({2-oxo-1-[4-(4-oxo-3,4-dihydrophthalazin-1-yl)phenyl]pyrrolidin-3-yl}amino)-3,4-dihydro-2H-1,4-benzoxazin-3-one] |
| 10 to 100 | O=C1COc2cc(NC3CCN(c4ccc(-c5n[nH]c(=O)c6ccccc56)cc4)C3=O)ccc2N1 (single isomer, unassigned) [Example 83, 7-({2-oxo-1-[4-(4-oxo-3,4-dihydrophthalazin-1-yl)phenyl]pyrrolidin-3-yl}amino)-3,4-dihydro-2H-1,4-benzoxazin-3-one] |
| < 10 | O=C1C(Oc2cccc(OC(F)(F)F)c2)CCN1c1ccc(-c2n[nH]c(=O)c3ccccc23)cc1 (single isomer, unassigned) [Example 84, 4-(4-{2-oxo-3-[3-(trifluoromethoxy)phenoxy]pyrrolidin-1-yl}phenyl)-1,2-dihydrophthalazin-1-one] |

| IC50 [nM] | Compound |
| --- | --- |
| < 10 | O=C1C(Oc2cccc(OC(F)(F)F)c2)CCN1c1ccc(-c2n[nH]c(=O)c3ccccc23)cc1 (single isomer, unassigned) [Example 85, 4-(4-{2-oxo-3-[3-(trifluoromethoxy)phenoxy]pyrrolidin-1-yl}phenyl)-1,2-dihydrophthalazin-1-one] |
| 100 to 500 | O=C1C(c2ccccc2)CCN1c1ccc(-c2n[nH]c(=O)c3ccccc23)cc1 (centres unmarked) [Example 1, 4-[4-(2-oxo-3-phenylpyrrolidin-1-yl)phenyl]-1,2-dihydrophthalazin-1-one] |
| < 10 | O=C1N(c2ccccc2)CCN1c1ccc(-c2n[nH]c(=O)c3ccccc23)cc1 [Example 2, 4-[4-(2-oxo-3-phenylimidazolidin-1-yl)phenyl]-1,2-dihydrophthalazin-1-one] |
| 500 to 2000 | O=C1C(C(=O)N2CCc3ccccc32)CCN1c1ccc(-c2n[nH]c(=O)c3ccccc23)cc1 (centres unmarked) [Example 3, 4-{4-[3-(2,3-dihydro-1H-indole-1-carbonyl)-2-oxopyrrolidin-1-yl]phenyl}-1,2-dihydrophthalazin-1-one] |
| 100 to 500 | O=C1CC(c2ccccc2)CN1c1ccc(-c2n[nH]c(=O)c3ccccc23)cc1 (centres unmarked) [Example 4, 4-[4-(2-oxo-4-phenylpyrrolidin-1-yl)phenyl]-1,2-dihydrophthalazin-1-one] |
| 500 to 2000 | O=C(C1CCN(c2ccc(-c3n[nH]c(=O)c4ccccc34)cc2)C1=O)N1Cc2ccccc2C1 (centres unmarked) [Example 5, 4{-4-[3-(2,3-dihydro-1H-isoindole-2-carbonyl)-2-oxopyrrolidin-1-yl]phenyl}-1,2-dihydrophthalazin-1-one] |
| 100 to 500 | O=C(Nc1ccccc1)C1CCN(c2ccc(-c3n[nH]c(=O)c4ccccc34)cc2)C1=O (centres unmarked) [Example 6, 2-oxo-1-[4-(4-oxo-3,4-dihydrophthalazin-1-yl)phenyl]-N-phenylpyrrolidine-3-carboxamide] |
| 100 to 500 | O=C(NCc1ccccc1)C1CCN(c2ccc(-c3n[nH]c(=O)c4ccccc34)cc2)C1=O (centres unmarked) [Example 7, N-benzyl-2-oxo-1-[4-(4-oxo-3,4-dihydrophthalazin-1-yl)phenyl]pyrrolidine-3-carboxamide] |
| 500 to 2000 | O=C1C(c2ccc(-c3n[nH]c(=O)c4ccccc34)cc2)CCN1Cc1ccccc1 (centres unmarked) [Example 8, 4-[4-(1-benzyl-2-oxopyrrolidin-3-yl)phenyl]-1,2-dihydrophthalazin-1-one] |
| 100 to 500 | O=C1C(c2ccc(-c3n[nH]c(=O)c4ccccc34)cc2)CCN1c1ccccc1 (centres unmarked) [Example 9, 4-[4-(2-oxo-1-phenylpyrrolidin-3-yl)phenyl]-1,2-dihydrophthalazin-1-one] |
| 10 to 100 | O=C1N(Cc2ccccc2)CCN1c1ccc(-c2n[nH]c(=O)c3ccccc23)cc1 [Example 10, 4-[4-(3-benzyl-2-oxoimidazolidin-1-yl)phenyl]-1,2-dihydrophthalazin-1-one] |
| 10 to 100 | O=C1N(c2ccc(-c3n[nH]c(=O)c4ccccc34)cc2)CCN1c1cccnc1 [Example 11, 4-{4-[2-oxo-3-(pyridin-3-yl)imidazolidin-1-yl]phenyl}-1,2-dihydrophthalazin-1-one] |
| 10 to 100 | O=C1N(c2ccc(-c3n[nH]c(=O)c4ccccc34)cc2)CCN1c1ccccn1 [Example 12, 4-{4-[2-oxo-3-(pyridin-2-yl)imidazolidin-1-yl]phenyl}-1,2-dihydrophthalazin-1-one] |
| 10 to 100 | O=C1OC(Cc2ccccc2)CN1c1ccc(-c2n[nH]c(=O)c3ccccc23)cc1 (centres unmarked) [Example 13, 4-[4-(5-benzyl-2-oxo-1,3-oxazolidin-3-yl)phenyl]-1,2-dihydrophthalazin-1-one] |
| 100 to 500 | O=C1OCC(c2ccccc2)N1c1ccc(-c2n[nH]c(=O)c3ccccc23)cc1 (centres unmarked) [Example 14, 4-[4-(2-oxo-4-phenyl-1,3-oxazolidin-3-yl)phenyl]-1,2-dihydrophthalazin-1-one] |
| 10 to 100 | O=C1OC(c2ccccc2)CN1c1ccc(-c2n[nH]c(=O)c3ccccc23)cc1 (centres unmarked) [Example 15, 4-[4-(2-oxo-5-phenyl-1,3-oxazolidin-3-yl)phenyl]-1,2-dihydrophthalazin-1-one] |

— patent publication US10730858B2, “Lactam, cyclic urea and carbamate, and triazolone derivatives as potent and selective rock inhibitors” (BRISTOL-MYERS SQUIBB COMPANY, priority 2016, dated 2020)
